According to US20250027085A1, “COMPOSITIONS AND METHODS FOR TREATING ALZHEIMER'S DISEASE UTILIZING A TRANSCRIPTIONAL MASTER REGULATOR OF THE RETROMER COMPLEX” (THE TRUSTEES OF COLUMBIA UNIVERSITY IN THE CITY OF NEW YORK, priority 2022, published 2025):

Test system: rat hippocampal neurons
Assay: Cell death assay (TUNEL) after axonal Aβ1-42/Aβ42 treatment in microfluidic chambers
Assay type: cell-based
Conditions: Aβ oligomers 36 hours, nelfinavir in the last 24 hours, 10/15 μM nelfinavir
Method: Hippocampi were dissected from embryonic day (E) 16-18 rat embryos obtained from pregnant Sprague-Dawley dams (Envigo). All animal procedures were approved by the Institutional Animal Care and Use Committee at Columbia University. Cell dissociation was performed using TripLE Express. Neurons (50,000-60,000 per microfluidic chamber) were plated on 0.1 mg ml^-1 poly-D-lysine (Millipore Sigma) and 2 μg ml^-1 laminin (Bio-Techne) coated substrates and grown in Neurobasal supplemented with 10% fetal bovine serum, 2 mM L-glutamine, 1 mM sodium pyruvate, and antibiotics (50 U ml^-1 penicillin-streptomycin). Tripartite microfluidic chambers were produced with Dow Corning Sylgard 184 Silicone Encapsulant Clear Kit (10:1 mix ratio; Ellsworth Adhesives) cured at […] for at least 4 hours following published protocols (Park et al. 2006; Desai et al. 2009). Chamber design incorporated two sets of 200-μm-long microgroove barriers to exclude crossing of cell bodies and dendrites (Taylor et al. 2005; […] et al. 2009). After 24 hours, medium was changed to Neurobasal containing 1×B27 and 2 mM L-glutamine. Subsequent medium changes (half volumes) were performed at DIV4 and thereafter every 3-5 days. To prevent glial cell proliferation, medium changes included 5-flurodeoxyuridine and uridine (final concentration […]; Millipore Sigma) after DIV4. […]

`Cc1c(O)cccc1C(=O)N[C@@H](CSc1ccccc1)[C@H](O)CN1C[C@H]2CCCC[C@H]2C[C@H]1C(=O)NC(C)(C)C` [nelfinavir] was tested, and the “retrograde degeneration response (TUNEL) triggered by local Aβ1-42/Aβ42 stimuli” value was “completely rescued”.
